Columns and labels:
CYPSE (Flatsedge) [1] = experiment: Preemergence weed control under flooded paddy conditions; assay type: in vivo, Cyperus serotinus; details: rated 3-4 weeks after treatment
Summary of the method: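 Seeds or propagules sown in silt loam kept flooded 1.5-3 cm; compounds in 50/50 acetone/water pipetted into flood water at about 0.0313 to 0.500 kg/ha. Greenhouse; visual 0-9 rating versus untreated control 3-4 weeks after treatment.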

ZEAMX (Corn, Field) = experiment: Postemergence herbicidal evaluation; assay type: in vivo, Zea mays; details: postemergence
Summary of the method: (§1)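 Young plants, roughly two weeks from seeding, receive the active ingredient as a sprayed dispersion (acetone/water 50/50, 0.5% TWEEN 20) at 40 psi. Doses span about 0.0156 to 0.500 kg/ha. A visual score from 0 to 9 compares treated with control plants four to five weeks on.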

[2] = test system: CHEAL (Lambsquarters, Common); experiment: Preemergence herbicidal evaluation; assay type: in vivo, Chenopodium album; details: rated 4-5 weeks after treatment; for CHEAL rating: preemergence, 0-9 scale
Summary of the method: (§2)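 Steps: mix seeds into potting soil; plant atop ~1 inch soil; spray compound in aqueous acetone (~0.0156-0.500 kg/ha equivalent); maintain in greenhouse with watering; rate visually 0-9 versus control at 4-5 weeks.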

CASOB (Sicklepod) = experiment: Preemergence herbicidal evaluation; assay type: in vivo, Cassia obtusifolia; details: rated 4-5 weeks after treatment; for CASOB rating: preemergence, 0-9 scale
Summary of the method: as §2

AMBEL (Ragweed, Common) [3] = experiment: Preemergence herbicidal evaluation; assay type: in vivo, Ambrosia artemisifolia; details: rated 4-5 weeks after treatment; for AMBEL rating: preemergence, 0-9 scale
Summary of the method: as §2

GALAP (Galium) = experiment: Preemergence herbicidal evaluation; assay type: in vivo, Galium aparine; details: rated 4-5 weeks after treatment; for GALAP rating: preemergence, 0-9 scale
Summary of the method: as §2

ORYSAT (Rice, Tebonnet) = experiment: Postemergence herbicidal evaluation; assay type: in vivo, Oryza sativa, (L.) Tebonnet; details: postemergence
Summary of the method: as §1

CYPIR (Rice Flatsedge) = experiment: Postemergence weed control under flooded paddy conditions; assay type: in vivo, Cyperus iria; details: postemergence weeds
Summary of the method: (§3)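 Flood-water application, about 0.0313–0.500 kg/ha a.i. in aqueous/acetone 50/50 v/v; water depth 1.5–3 cm throughout. Weeds 3–5 cm, rice 1.5–2.5 leaf. Greenhouse; 0–9 visual rating vs control at 3–4 wk.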

CYPSE (Flatsedge) [4] = experiment: as above; assay type: in vivo, Cyperus serotinus; details: postemergence weeds
Summary of the method: as §3

[5] = test system: CHEAL (Lambsquarters, Common); experiment: Postemergence herbicidal evaluation; assay type: in vivo, Chenopodium album; details: postemergence
Summary of the method: as §1

[6] = test system: GLXMAW (Soybean, Williams); experiment: Postemergence herbicidal evaluation; assay type: in vivo, Glycine max, (L.) Merr. cv Williams; details: postemergence
Summary of the method: as §1

AMBEL (Ragweed, Common) [7] = experiment: Postemergence herbicidal evaluation; assay type: in vivo, Ambrosia artemisifolia; details: postemergence
Summary of the method: as §1

ABUTH (Velvetleaf) = experiment: Postemergence herbicidal evaluation; assay type: in vivo, Abutilon theophrasti; details: postemergence
Summary of the method: as §1

ECHCG (Barnyardgrass) = experiment: Postemergence herbicidal evaluation; assay type: in vivo, Echinochloa crus-galli; details: postemergence
Summary of the method: as §1

[8] = Rate 0.0625 kg/ha, rated 3 to 4 weeks after treatment
[9] = Rate 0.1250 kg/ha, rated 3 to 4 weeks after treatment
[10] = Rate 0.2500 kg/ha, rated 3 to 4 weeks after treatment
[11] = rate 0.0313 kg/ha, 3-4 weeks after treatment
[12] = rate 0.0625 kg/ha, 3-4 weeks after treatment
[13] = rate 0.1250 kg/ha, 3-4 weeks after treatment
[14] = rate 0.2500 kg/ha, 3-4 weeks after treatment

## COC(=O)C1(N2C(=O)CSC2=Nc2cc(-n3c(=O)cc(C(F)(F)F)n(C)c3=O)c(F)cc2Cl)CCCCC1 [Compound 81, Methyl 1-{2-{{2-chloro-5-[3,6-dihydro-3-methyl-2,6-dioxo-4-(trifluoromethyl)-1(2H)-pyrimidinyl]-4-fluorophenyl}imino}-4-oxo-3-thiazolidinyl}-cyclohexanecarboxylate]
CYPSE (Flatsedge) [1]; 0.0625 kg/ha
  CYPSE herbicidal effect rating: 0.0
CYPSE (Flatsedge) [1]; 0.1250 kg/ha
  CYPSE herbicidal effect rating: 0.0
CYPSE (Flatsedge) [1]; 0.2500 kg/ha
  CYPSE herbicidal effect rating: 0.0
ZEAMX (Corn, Field); rate 0.0158 kg/ha
  ZEAMX herbicidal rating: 6.5
ZEAMX (Corn, Field); rate 0.0315 kg/ha
  ZEAMX herbicidal rating: 7.0
ZEAMX (Corn, Field); rate 0.0630 kg/ha
  ZEAMX herbicidal rating: 7.0
[2]; 0.0313 kg/ha
  CHEAL rating: 7.0
[2]; 0.0625 kg/ha
  CHEAL rating: 9.0
[2]; 0.1250 kg/ha
  CHEAL rating: 9.0
[2]; 0.2500 kg/ha
  CHEAL rating: 9.0
CASOB (Sicklepod); 0.0313 kg/ha
  CASOB rating: 0.0
CASOB (Sicklepod); 0.1250 kg/ha
  CASOB rating: 0.0
CASOB (Sicklepod); 0.2500 kg/ha
  CASOB rating: 0.0
AMBEL (Ragweed, Common) [3]; 0.0313 kg/ha
  AMBEL rating: 6.0
AMBEL (Ragweed, Common) [3]; 0.0625 kg/ha
  AMBEL rating: 6.0
AMBEL (Ragweed, Common) [3]; 0.1250 kg/ha
  AMBEL rating: 9.0
AMBEL (Ragweed, Common) [3]; 0.2500 kg/ha
  AMBEL rating: 9.0
GALAP (Galium); 0.0313 kg/ha
  GALAP rating: 0.0
GALAP (Galium); 0.0625 kg/ha
  GALAP rating: 0.0
GALAP (Galium); 0.1250 kg/ha
  GALAP rating: 0.0
GALAP (Galium); 0.2500 kg/ha
  GALAP rating: 1.0
ORYSAT (Rice, Tebonnet); rate 0.0158 kg/ha
  ORYSAT herbicidal rating: 4.5
ORYSAT (Rice, Tebonnet); rate 0.0315 kg/ha
  ORYSAT herbicidal rating: 4.5
ORYSAT (Rice, Tebonnet); rate 0.0630 kg/ha
  ORYSAT herbicidal rating: 5.5
CYPIR (Rice Flatsedge); [8]
  Herbicidal rating CYPIR: 4.0
CYPIR (Rice Flatsedge); [9]
  Herbicidal rating CYPIR: 5.0
CYPIR (Rice Flatsedge); [10]
  Herbicidal rating CYPIR: 5.0
CYPSE (Flatsedge) [4]; [8]
  Herbicidal rating CYPSE: 0.0
CYPSE (Flatsedge) [4]; [9]
  Herbicidal rating CYPSE: 0.0
CYPSE (Flatsedge) [4]; [10]
  Herbicidal rating CYPSE: 0.0
[5]; rate 0.0158 kg/ha
  CHEAL herbicidal rating: 4.0
[5]; rate 0.0315 kg/ha
  CHEAL herbicidal rating: 3.0
[6]; rate 0.0158 kg/ha
  GLXMAW herbicidal rating: 6.5
[6]; rate 0.0315 kg/ha
  GLXMAW herbicidal rating: 6.5
[6]; rate 0.0630 kg/ha
  GLXMAW herbicidal rating: 6.5
AMBEL (Ragweed, Common) [7]; rate 0.0158 kg/ha
  AMBEL herbicidal rating: 9.0
AMBEL (Ragweed, Common) [7]; rate 0.0315 kg/ha
  AMBEL herbicidal rating: 9.0
AMBEL (Ragweed, Common) [7]; rate 0.0630 kg/ha
  AMBEL herbicidal rating: 9.0
ABUTH (Velvetleaf); rate 0.0158 kg/ha
  ABUTH herbicidal rating: 7.0
ABUTH (Velvetleaf); rate 0.0315 kg/ha
  ABUTH herbicidal rating: 7.0
ABUTH (Velvetleaf); rate 0.0630 kg/ha
  ABUTH herbicidal rating: 9.0
ECHCG (Barnyardgrass); rate 0.0158 kg/ha
  ECHCG herbicidal rating: 1.0
ECHCG (Barnyardgrass); rate 0.0315 kg/ha
  ECHCG herbicidal rating: 2.0
ECHCG (Barnyardgrass); rate 0.0630 kg/ha
  ECHCG herbicidal rating: 6.0

## C=CCN1C(=O)CSC1=Nc1cc(-n2c(=O)cc(C(F)(F)F)n(C)c2=O)c(F)cc1Cl [Compound 27]
CYPSE (Flatsedge) [1]; 0.0313 kg/ha
  Herbicidal rating CYPSE: 0.0
CYPSE (Flatsedge) [1]; 0.0625 kg/ha
  Herbicidal rating CYPSE: 0.0
CYPSE (Flatsedge) [1]; 0.1250 kg/ha
  Herbicidal rating CYPSE: 0.0
CYPSE (Flatsedge) [1]; 0.2500 kg/ha
  Herbicidal rating CYPSE: 9.0
ZEAMX (Corn, Field); rate 0.0158 kg/ha
  ZEAMX herbicidal rating: 5.0
ZEAMX (Corn, Field); rate 0.0315 kg/ha
  ZEAMX herbicidal rating: 5.5
ZEAMX (Corn, Field); rate 0.0630 kg/ha
  ZEAMX herbicidal rating: 6.5
[2]; rate 0.0156 kg/ha
  Preemergence herbicidal rating CHEAL: 0.0
[2]; rate 0.0313 kg/ha
  Preemergence herbicidal rating CHEAL: 9.0
[2]; rate 0.0625 kg/ha
  Preemergence herbicidal rating CHEAL: 9.0
[2]; rate 0.1250 kg/ha
  Preemergence herbicidal rating CHEAL: 9.0
[2]; rate 0.2500 kg/ha
  Preemergence herbicidal rating CHEAL: 9.0
CASOB (Sicklepod); rate 0.0156 kg/ha
  Preemergence herbicidal rating CASOB: 0.0
CASOB (Sicklepod); rate 0.0313 kg/ha
  Preemergence herbicidal rating CASOB: 0.0
CASOB (Sicklepod); rate 0.0625 kg/ha
  Preemergence herbicidal rating CASOB: 0.0
CASOB (Sicklepod); rate 0.1250 kg/ha
  Preemergence herbicidal rating CASOB: 0.0
CASOB (Sicklepod); rate 0.2500 kg/ha
  Preemergence herbicidal rating CASOB: 0.0
AMBEL (Ragweed, Common) [3]; rate 0.0156 kg/ha
  Preemergence herbicidal rating AMBEL: 0.0
AMBEL (Ragweed, Common) [3]; rate 0.0313 kg/ha
  Preemergence herbicidal rating AMBEL: 2.0
AMBEL (Ragweed, Common) [3]; rate 0.0625 kg/ha
  Preemergence herbicidal rating AMBEL: 2.0
AMBEL (Ragweed, Common) [3]; rate 0.1250 kg/ha
  Preemergence herbicidal rating AMBEL: 9.0
AMBEL (Ragweed, Common) [3]; rate 0.2500 kg/ha
  Preemergence herbicidal rating AMBEL: 7.0
GALAP (Galium); rate 0.0156 kg/ha
  Preemergence herbicidal rating GALAP: 0.0
GALAP (Galium); rate 0.0313 kg/ha
  Preemergence herbicidal rating GALAP: 9.0
GALAP (Galium); rate 0.0625 kg/ha
  Preemergence herbicidal rating GALAP: 9.0
GALAP (Galium); rate 0.1250 kg/ha
  Preemergence herbicidal rating GALAP: 9.0
GALAP (Galium); rate 0.2500 kg/ha
  Preemergence herbicidal rating GALAP: 9.0
ORYSAT (Rice, Tebonnet); rate 0.0158 kg/ha
  ORYSAT herbicidal rating: 2.0
ORYSAT (Rice, Tebonnet); rate 0.0315 kg/ha
  ORYSAT herbicidal rating: 2.5
ORYSAT (Rice, Tebonnet); rate 0.0630 kg/ha
  ORYSAT herbicidal rating: 4.5
CYPIR (Rice Flatsedge); [11]
  Herbicidal rating CYPIR: 3.0
CYPIR (Rice Flatsedge); [12]
  Herbicidal rating CYPIR: 4.0
CYPIR (Rice Flatsedge); [13]
  Herbicidal rating CYPIR: 6.0
CYPIR (Rice Flatsedge); [14]
  Herbicidal rating CYPIR: 9.0
CYPSE (Flatsedge) [4]; [11]
  Herbicidal rating CYPSE: 0.0
CYPSE (Flatsedge) [4]; [12]
  Herbicidal rating CYPSE: 0.0
CYPSE (Flatsedge) [4]; [13]
  Herbicidal rating CYPSE: 0.0
CYPSE (Flatsedge) [4]; [14]
  Herbicidal rating CYPSE: 9.0
[5]; rate 0.0158 kg/ha
  CHEAL herbicidal rating: 6.0
[5]; rate 0.0315 kg/ha
  CHEAL herbicidal rating: 6.0
[5]; rate 0.0630 kg/ha
  CHEAL herbicidal rating: 9.0
[6]; rate 0.0158 kg/ha
  GLXMAW herbicidal rating: 6.0
[6]; rate 0.0315 kg/ha
  GLXMAW herbicidal rating: 6.5
[6]; rate 0.0630 kg/ha
  GLXMAW herbicidal rating: 7.5
AMBEL (Ragweed, Common) [7]; rate 0.0158 kg/ha
  AMBEL herbicidal rating: 4.0
AMBEL (Ragweed, Common) [7]; rate 0.0315 kg/ha
  AMBEL herbicidal rating: 5.0
AMBEL (Ragweed, Common) [7]; rate 0.0630 kg/ha
  AMBEL herbicidal rating: 7.0
ABUTH (Velvetleaf); rate 0.0158 kg/ha
  ABUTH herbicidal rating: 9.0
ABUTH (Velvetleaf); rate 0.0315 kg/ha
  ABUTH herbicidal rating: 9.0
ABUTH (Velvetleaf); rate 0.0630 kg/ha
  ABUTH herbicidal rating: 9.0
ECHCG (Barnyardgrass); rate 0.0158 kg/ha
  ECHCG herbicidal rating: 2.0
ECHCG (Barnyardgrass); rate 0.0315 kg/ha
  ECHCG herbicidal rating: 2.0
ECHCG (Barnyardgrass); rate 0.0630 kg/ha
  ECHCG herbicidal rating: 1.0

— patent US20020137929A1, “1 - (3-heterocyclylphenyl) isothiourea, -isourea, -guanidine and -amidine herbicidal agents” (Intellectual Property Department, BASF Aktiengesellschaft, priority 1998, published 2002)
